This passage reports IC50 results from patent publication US20260250290A1 (BRISTOL-MYERS SQUIBB COMPANY, priority 2023, published 2026).

Several values for one entry are separate records, joined by “and”; a condition that tells them apart may be missing. Identical values can stand only once. Counter-ions that a name gives are not always drawn.

This experiment deals with T1, full length SGK1 (Homo sapiens, UniProt O00141).
T1 construct: 125 μM full length SGK1 (Life Technologies Part #PR7358A); purchased Life Technologies PR7358A
T1 sequence (O00141 1-431): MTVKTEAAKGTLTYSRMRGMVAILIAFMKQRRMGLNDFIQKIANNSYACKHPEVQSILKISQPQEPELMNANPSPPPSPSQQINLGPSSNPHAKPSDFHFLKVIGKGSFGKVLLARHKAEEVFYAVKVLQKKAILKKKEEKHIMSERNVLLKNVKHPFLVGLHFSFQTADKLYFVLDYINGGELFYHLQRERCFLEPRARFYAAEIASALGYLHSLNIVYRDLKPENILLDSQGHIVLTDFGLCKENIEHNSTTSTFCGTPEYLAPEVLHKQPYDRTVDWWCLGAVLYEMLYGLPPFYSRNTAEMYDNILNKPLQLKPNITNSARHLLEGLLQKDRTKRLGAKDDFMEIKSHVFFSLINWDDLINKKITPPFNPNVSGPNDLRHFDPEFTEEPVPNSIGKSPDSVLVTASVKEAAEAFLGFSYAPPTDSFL
The experiment can be described thus: SGK1 inhibition Assay A (Caliper LabChip electrophoretic separation of fluorescent peptide substrate and phosphorylated product). It counts as biochemical. The settings on record: Assay A; 20 μM ATP, 40 min incubation; read-out: SGK1 IC50.
For the compound `CN(C)CCOc1cc(C(F)F)sc1C(=O)N[C@@H]1CCCN(c2cc(-c3ccc(C#N)nc3)n3ncnc(N)c23)C1` [Example 310, (R)-N-(1-(4-amino-7-(6-cyanopyridin-3-yl)pyrrolo[2,1-f] [1,2,4]triazin-5-yl)piperidin-3-yl)-5-(difluoromethyl)-3-(2-(dimethylamino)ethoxy)thiophene-2-carboxamide], the IC50 (in general, the midpoint of a concentration-inhibition curve) was 3 nM.
With `CC(=O)N1CCC(Oc2cc(C(F)F)sc2C(=O)N[C@@H]2CCCN(c3cc(-c4cncnc4)n4ncnc(N)c34)C2)CC1` [Example 413, (R)-3-((1-acetylpiperidin-4-yl)oxy)-N-(1-(4-amino-7-(pyrimidin-5-yl)pyrrolo[2,1-f][1,2,4]triazin-5-yl)piperidin-3-yl)-5-(difluoromethyl)thiophene-2-carboxamide], the 50% inhibitory concentration (IC50) stood at 113 nM.
Under `Nc1ncnn2c(-c3cccc(Cl)c3)cc(N3CCC[C@@H](NC(=O)c4ccc(Cl)s4)C3)c12` [Example 234] stands 64 nM.
The figure for `CN1CCN(CCOc2cc(C(F)F)sc2C(=O)N[C@@H]2CCCN(c3cc(-c4ccnc(C(F)F)c4)n4ncnc(N)c34)C2)CC1` [Example 335, (R)—N-(1-(4-amino-7-(2-(difluoromethyl)pyridin-4-yl)pyrrolo[2,1-f][1,2,4]triazin-5-yl)piperidin-3-yl)-5-(difluoromethyl)-3-(2-(4-methylpiperazin-1-yl)ethoxy)thiophene-2-carboxamide] is 4 nM.
For `CC(=O)N1CC=C(c2cc(N3CCC[C@@H](NC(=O)c4cccc(N5CCN6CCCC6C5)n4)C3)c3c(N)ncnn23)C1` (stereo partly drawn) [Example 769, N-((R)-1-(7-(1-acetyl-2,5-dihydro-1H-pyrrol-3-yl)-4-aminopyrrolo[2,1-f][1,2,4]triazin-5-yl)piperidin-3-yl)-6-(hexahydropyrrolo[1,2-a]pyrazin-2(1H)-yl)picolinamide], the IC50 was 2 nM.
With `CN1CCC(c2cc(C(F)F)sc2C(=O)N[C@@H]2CCCN(c3cc(-c4ccc(C#N)nc4)n4ncnc(N)c34)C2)C1` (stereo partly drawn) [Example 401, N-((R)-1-(4-amino-7-(6-cyanopyridin-3-yl)pyrrolo [2,1-f][1,2,4]triazin-5-yl)piperidin-3-yl)-5-(difluoromethyl)-3-(1-methylpyrrolidin-3-yl)thiophene-2-carboxamide], the IC50 amounted to 250 nM.
The figure for `CC(=O)N1CC=C(c2cc(N3CCC[C@@H](NC(=O)c4sc(C(F)F)cc4C4CCN(C)C4)C3)c3c(N)ncnn23)C1` (stereo partly drawn) [Example 398, N—((R)-1-(7-(1-acetyl-2,5-dihydro-1H-pyrrol-3-yl)-4-aminopyrrolo[2,1-f][1,2,4]triazin-5-yl)piperidin-3-yl)-5-(difluoromethyl)-3-(1-methylpyrrolidin-3-yl)thiophene-2-carboxamide] is 246 nM; for `Nc1ncnn2c(C3=CCN(C(=O)c4cncs4)C3)cc(N3CCC[C@@H](NC(=O)c4ccc(Cl)s4)C3)c12` [Example 886, (R)-N-(1-(4-amino-7-(1-(thiazole-5-carbonyl)-2,5-dihydro-1H-pyrrol-3-yl)pyrrolo[2,1-f][1,2,4]triazin-5-yl)piperidin-3-y1)-5-chlorothiophene-2-carboxamide] it is 4 nM; for `COC(=O)N1CC=C(c2cc(N3CCC[C@@H](NC(=O)c4ccc(C(F)F)s4)C3)c3c(N)ncnn23)C1` [Example 480, Methyl (R)-3-(4-amino-5-(3-(5-(difluoromethyl)thiophene-2-carboxamido)piperidin-1-yl)pyrrolo[2,1-f][1,2,4]triazin-7-yl)-2,5-dihydro-1H-pyrrole-1-carboxylate] it is 3 nM.
As to `CC(=O)N1CC=C(c2cc(N3CCC[C@@H](NC(=O)c4sc5ccccc5c4OCCN(C)C)C3)c3c(N)ncnn23)C1` [Example 662, (R)-N-(1-(7-(1-acetyl-2,5-dihydro-1H-pyrrol-3-yl)-4-aminopyrrolo[2,1-f][1,2,4]triazin-5-yl)piperidin-3-yl)-3-(2-(dimethylamino)ethoxy)benzo[b]thiophene-2-carboxamide], the IC50 was found to be 16 nM.
As to `CS(=O)(=O)c1ccc(-c2cc(N3CCCC(NC(=O)c4ccccc4)C3)c3c(N)ncnn23)cc1` (stereo not shown) [Example 4, N-(1-(4-amino-7-(4-(methylsulfonyl)phenyl)pyrrolo[2,1-f][1,2,4]triazin-5-yl)piperidin-3-yl)benzamide], the half-maximal inhibitory concentration (IC50) was found to be 33 nM.
The figure for `CS(=O)(=O)c1ccc(-c2cc(N3CCCC(NC(=O)c4ccc(Cl)c(Cl)c4)C3)c3c(N)ncnn23)cc1` (stereo not shown) [Example 6, N-(1-(4-amino-7-(4-(methylsulfonyl)phenyl)pyrrolo[2,1-f][1,2,4]triazin-5-yl)piperidin-3-yl)-3,4-dichlorobenzamide] is 157 nM; for `CC(=O)N1CC=C(c2cc(N3CCC[C@@H](NC(=O)N4CC[C@H](O)C4)C3)c3c(N)ncnn23)C1` [Example 875, (S)-N-((R)-1-(7-(1-acetyl-2,5-dihydro-1H-pyrrol-3-yl)-4-aminopyrrolo[2,1-f][1,2,4]triazin-5-yl)piperidin-3-yl)-3-hydroxypyrrolidine-1-carboxamide] it is 477 nM; for `CC(=O)N1CC=C(c2cc(N3CCC[C@@H](NC(=O)c4csc(Cl)c4)C3)c3c(N)ncnn23)C1` [Example 719] it is 5 nM.
Under `CN(C)CCOc1cc(Cl)sc1C(=O)N[C@@H]1CCCN(c2cc(-c3ccc4cnoc4c3)n3ncnc(N)c23)C1` [Example 872, (R)—N-(1-(4-amino-7-(benzo[d]isoxazol-6-yl)pyrrolo[2,1-f][1,2,4]triazin-5-yl)piperidin-3-yl)-5-chloro-3-(2-(dimethylamino)ethoxy)thiophene-2-carboxamide] stands 3 nM; under `Nc1ncnn2c(-c3ccnc(F)c3)cc(N3CCC[C@@H](NC(=O)c4csc5c4CCCC5)C3)c12` [Example 160, (R)-N-(1-(4-amino-7-(2-fluoropyridin-4-yl)pyrrolo[2,1-f][1,2,4]triazin-5-yl)piperidin-3-yl)-4,5,6,7-tetrahydrobenzo[b] thiophene-3-carboxamide, TFA], 20 nM; under `COC(=O)N1CC=C(c2cc(N3CCC[C@@H](NC(=O)c4sc(Cl)cc4OC4CN(C5CCOCC5)C4)C3)c3c(N)ncnn23)C1` [Example 573, Methyl (R)-3-(4-amino-5-(3-(5-chloro-3-((1-(tetrahydro-2H-pyran-4-yl)azetidin-3-yl)oxy)thiophene-2-carboxamido)piperidin-1-yl)pyrrolo[2,1-f][1,2,4]triazin-7-yl)-2,5-dihydro-1H-pyrrole-1-carboxylate], 73 nM.
For the compound `CC(=O)N1CC=C(c2cc(N3CCC[C@@H](NC(=O)c4sc(C(F)F)cc4C4CCNC4)C3)c3c(N)ncnn23)C1` (single isomer, unassigned) [Example 398F], the IC50 stood at 130 nM.
The figure for `CS(=O)(=O)N1C=C(c2cc(N3CCC[C@@H](NC(=O)c4ccnc(F)c4)C3)c3c(N)ncnn23)CC1` [Example 118, (R)—N-(1-(4-amino-7-(1-(methylsulfonyl)-4,5-dihydro-1H-pyrrol-3-yl)pyrrolo[2,1-f][1,2,4]triazin-5-yl)piperidin-3-yl)-2-fluoroisonicotinamide, TFA] is 130 nM; for `NC(=O)c1ccc(-c2cc(N3CCC[C@@H](NC(=O)c4sc(C(F)F)cc4OC4CCNCC4)C3)c3c(N)ncnn23)cc1F` [Example 349, (R)-N-(1-(4-amino-7-(4-carbamoyl-3-fluorophenyl)pyrrolo[2,1-f][1,2,4]triazin-5-yl)piperidin-3-yl)-5-(difluoromethyl)-3-(piperidin-4-yloxy)thiophene-2-carboxamide] it is 2 nM.
Regarding `CC(=O)N1CC=C(c2cc(N3CCC[C@@H](NC(=O)c4ccc(-c5cncc(C#N)c5)s4)C3)c3c(N)ncnn23)C1` [Example 551, (R)-N-(1-(7-(1-acetyl-2,5-dihydro-1H-pyrrol-3-yl)-4-aminopyrrolo[2,1-f][1,2,4]triazin-5-yl)piperidin-3-yl)-5-(5-cyanopyridin-3-yl)thiophene-2-carboxamide], the IC50 is 6 nM.
Under `Nc1ncnn2c(-c3ccnc(F)c3)cc(N3CCC[C@@H](NC(=O)c4ccc(Cl)s4)C3)c12` [Example 130, N-[(3R)-1-[4-amino-7-(2-fluoropyridin-4-yl)pyrrolo[2,1-f][1,2,4]triazin-5-yl]piperidin-3-yl]-5-chlorothiophene-2-carboxamide] stands 19 nM.
On to `CN(C)CCOc1cc(Cl)sc1C(=O)N[C@@H]1CCCN(c2cc(-c3cncnc3)n3ncnc(N)c23)C1` [Example 583, (R)-N-(1-(4-amino-7-(pyrimidin-5-yl)pyrrolo[2,1-f][1,2,4]triazin-5-yl)piperidin-3-yl)-5-chloro-3-(2-(dimethylamino)ethoxy)thiophene-2-carboxamide], for which the concentration for half-maximal inhibition (IC50) was 16 nM and 26 nM.
Turning to `Nc1ncnn2c(-c3ccc(Cl)nc3)cc(N3CCC[C@@H](NC(=O)c4ccc(Cl)s4)C3)c12` [Example 236], the IC50 was 19 nM.
Consider `CC(C)(C)OC(=O)N1CCC(Oc2c(C(=O)N[C@@H]3CCCN(c4cc(-c5ccc(C#N)nc5)n5ncnc(N)c45)C3)sc3ccccc23)CC1` [Example 654, tert-butyl (R)-4-((2-((1-(4-amino-7-(6-cyanopyridin-3-yl)pyrrolo[2,1-f][1,2,4]triazin-5-yl)piperidin-3-yl)carbamoyl)benzo[b]thiophen-3-yl)oxy)piperidine-1-carboxylate], for which the 50% inhibitory concentration (IC50) came out at 57 nM.
